The nature of this data set: storage stability / shelf life of sinoporphyrin sodium prepared by the method. It is filed as physicochemical. Particulars: sinoporphyrin sodium prepared by the disclosed method; storage conditions not given.

Turning to `C=Cc1c(C)c2cc3nc(cc4nc(cc5[nH]c(cc1[nH]2)c(C)c5C(C)OC(C)c1c(C)c2cc5[nH]c(cc6nc(cc7nc(cc1[nH]2)C(C)=C7CCC(=O)[O-])C(CCC(=O)[O-])=C6C)c(C)c5C=C)C(C)=C4CCC(=O)[O-])C(CCC(=O)[O-])=C3C.[Na+].[Na+].[Na+].[Na+]` (centres unmarked) [sinoporphyrin sodium, bis[1-[6,7-dipropionatesodium salt-1,3,5,8-tetramethyl-2-vinyl-4-porphyrin]ethyl] ether], the “purity with the extension of storage time (storage stability)” value was “does not decrease significantly” and the shelf life entry is “more than 24 months”.

The values above are taken from patent US20260274869A1, “PREPARATION METHODS OF ETHER-BONDED PORPHYRIN DIMER ESTER AND SINOPORPHYRIN SODIUM, PHARMACEUTICAL COMPOSITIONS CONTAINING THEM AND THEIR USES” (SHANGHAI GUANGSHENG BIOPHARMACEUTICAL CO., LTD, priority 2024, published 2026).
